The target in this test is T1, N-terminally GST-tagged human full length recombinant Mps-1 kinase (Homo sapiens, UniProt P33981).
T1 construct: N-terminally GST-tagged human full length recombinant Mps-1 kinase; purchased Invitrogen, Karslruhe, Germany PV4071
T1 sequence (P33981 1-857): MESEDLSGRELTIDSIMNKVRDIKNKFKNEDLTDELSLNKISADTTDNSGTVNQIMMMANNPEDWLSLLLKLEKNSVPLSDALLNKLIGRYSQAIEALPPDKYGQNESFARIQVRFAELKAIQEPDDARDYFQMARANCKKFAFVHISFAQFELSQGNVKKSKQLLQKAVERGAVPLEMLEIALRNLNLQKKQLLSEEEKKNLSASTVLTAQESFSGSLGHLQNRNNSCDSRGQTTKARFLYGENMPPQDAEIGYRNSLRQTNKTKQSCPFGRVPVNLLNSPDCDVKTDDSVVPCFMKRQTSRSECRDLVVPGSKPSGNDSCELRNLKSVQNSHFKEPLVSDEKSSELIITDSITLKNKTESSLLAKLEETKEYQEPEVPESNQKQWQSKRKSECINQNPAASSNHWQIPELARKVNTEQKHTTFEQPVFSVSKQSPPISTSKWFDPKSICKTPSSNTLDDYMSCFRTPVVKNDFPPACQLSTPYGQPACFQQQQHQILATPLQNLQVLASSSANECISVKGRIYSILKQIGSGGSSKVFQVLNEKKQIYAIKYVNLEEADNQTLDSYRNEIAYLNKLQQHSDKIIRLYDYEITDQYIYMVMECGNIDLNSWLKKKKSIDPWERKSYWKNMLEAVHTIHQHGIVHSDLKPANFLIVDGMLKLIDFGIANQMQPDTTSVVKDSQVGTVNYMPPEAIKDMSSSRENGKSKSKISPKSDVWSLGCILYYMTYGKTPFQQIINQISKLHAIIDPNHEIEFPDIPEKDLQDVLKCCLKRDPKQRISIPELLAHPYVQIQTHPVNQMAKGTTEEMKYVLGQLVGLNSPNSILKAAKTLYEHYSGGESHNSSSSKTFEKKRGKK
Nature of the test: Mps-1 kinase assay (TR-FRET). In kind it is biochemical. Particulars: Mps1 IC50 [nM], 10 μM ATP, 1 μM peptide substrate, 60 min at 22° C. The procedure, abridged:
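GST-tagged full-length recombinant Mps-1 at about 1 nM final, adjusted per lot for linear range, phosphorylated a biotinylated peptide. Product bound Eu-anti-phospho(Ser/Thr) antibody over 1 h at 22° C and was read by TR-FRET to streptavidin-XLent. Compounds scored for kinase inhibition.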
`COc1cccc(Nc2cc(NCC(C)(C)O)c3ncc(-c4ccc(C(=O)NC5CC5)c(C)c4)n3n2)c1` [Example 403, N-cyclopropyl-4-{8-[(2-hydroxy-2-methylpropyl)amino]-6-[(3-methoxyphenyl)amino]imidazo[1,2-b]pyridazin-3-yl}-2-methylbenzamide]: the IC50 is 1 nM.
Take `Cc1ccc(Cl)cc1Nc1cc(NCC(C)(C)O)c2ncc(-c3ccc(C(=O)NC4CC4)c(C)c3)n2n1` [Example 404, 4-{6-[(5-chloro-2-methylphenyl)amino]-8-[(2-hydroxy-2-methylpropyl)amino]imidazo[1,2-b]pyridazin-3-yl}-N-cyclopropyl-2-methylbenzamide]: the IC50 came out at 0.3 nM.
For `Cc1cc(-c2cnc3c(NCC(C)(C)O)cc(Nc4ccc(F)cc4Cl)nn23)ccc1C(=O)NC1CC1` [Example 405, 4-{6-[(2-chloro-4-fluorophenyl)amino]-8-[(2-hydroxy-2-methylpropyl)amino]imidazo[1,2-b]pyridazin-3-yl}-N-cyclopropyl-2-methylbenzamide], the IC50 was 0.2 nM.
For `Cc1cc(-c2cnc3c(NCC(C)(C)O)cc(Nc4ccc(F)nc4)nn23)ccc1C(=O)NC1CC1` [Example 406, N-cyclopropyl-4-{6-[(6-fluoropyridin-3-yl)amino]-8-[(2-hydroxy-2-methylpropyl)amino]imidazo[1,2-b]pyridazin-3-yl}-2-methylbenzamide] the value was 0.4 nM; for `C=Cc1cccc(Nc2cc(NCC(C)(C)O)c3ncc(-c4ccc(C(=O)NC5CC5)c(C)c4)n3n2)c1` [Example 409, N-cyclopropyl-4-{6-[(3-ethenylphenyl)amino]-8-[(2-hydroxy-2-methylpropyl)amino]imidazo[1,2-b]pyridazin-3-yl}-2-methylbenzamide], 0.7 nM; for `Cc1cc(-c2cnc3c(NCC(C)(C)O)cc(Oc4ccc(F)nc4)nn23)ccc1C(=O)NC1CC1` [Example 410, N-cyclopropyl-4-{6-[(6-fluoropyridin-3-yl)oxy]-8-[(2-hydroxy-2-methylpropyl)amino]imidazo[1,2-b]pyridazin-3-yl}-2-methylbenzamide], 0.5 nM.
For `Cc1cc(-c2cnc3c(NCC(C)(C)O)cc(Oc4cncc(C(N)=O)c4)nn23)ccc1C(=O)NC1CC1` [Example 411, 5-({3-[4-(cyclopropylcarbamoyl)-3-methylphenyl]-8-[(2-hydroxy-2-methylpropyl)amino]imidazo[1,2-b]pyridazin-6-yl}oxy)nicotinamide] the value was 4.8 nM; for `Cc1cc(-c2cnc3c(NCC(C)(C)O)cc(Sc4cnccn4)nn23)ccc1C(=O)NC1CC1` [Example 412, N-cyclopropyl-4-{8-[(2-hydroxy-2-methylpropyl)amino]-6-(pyrazin-2-ylsulfanyl)imidazo[1,2-b]pyridazin-3-yl}-2-methylbenzamide], 19.2 nM; for `Cc1cc(-c2cnc3c(NCC(C)(C)O)cc(Sc4nncn4C)nn23)ccc1C(=O)NC1CC1` [Example 413, N-cyclopropyl-4-{8-[(2-hydroxy-2-methylpropyl)amino]-6-[(4-methyl-4H-1,2,4-triazol-3-yl)sulfanyl]imidazo[1,2-b]pyridazin-3-yl}-2-methylbenzamide], 45.7 nM.
On to `Cc1cc(-c2cnc3c(NCC(C)(C)O)cc(Oc4ccn[nH]4)nn23)ccc1C(=O)NC1CC1` [Example 414, N-cyclopropyl-4-{8-[(2-hydroxy-2-methylpropyl)amino]-6-(1H-pyrazol-5-yloxy)imidazo[1,2-b]pyridazin-3-yl}-2-methylbenzamide], for which the IC50 was determined as 6.7 nM.
`Cc1cc(Oc2cc(NCC(C)(C)O)c3ncc(-c4ccc(C(=O)NC5CC5)c(C)c4)n3n2)n[nH]1` [Example 415, N-cyclopropyl-4-{8-[(2-hydroxy-2-methylpropyl)amino]-6-[(5-methyl-1H-pyrazol-3-yl)oxy]imidazo[1,2-b]pyridazin-3-yl}-2-methylbenzamide]: the IC50 was 8.2 nM.
In the case of `Cc1cc(-c2cnc3c(NCCC(F)(F)F)cc(Sc4ccc(F)cc4N)nn23)ccc1C(=O)NC1CC1` [Example 417, 4-{6-[(2-amino-4-fluorophenyl)sulfanyl]-8-[(3,3,3-trifluoropropyl)amino]imidazo[1,2-b]pyridazin-3-yl}-N-cyclopropyl-2-methylbenzamide], the IC50 came to 0.2 nM.
For `COc1c(Oc2cc(NCCC(F)(F)F)c3ncc(-c4ccc(C(=O)NC5CC5)c(C)c4)n3n2)cccc1C(C)C` [Example 418, N-cyclopropyl-4-{6-[2-methoxy-3-(propan-2-yl)phenoxy]-8-[(3,3,3-trifluoropropyl)amino]imidazo[1,2-b]pyridazin-3-yl}-2-methylbenzamide] the value was 1.2 nM.
Take `Cc1cc(-c2cnc3c(NCCC(F)(F)F)cc(Sc4nncn4C)nn23)ccc1C(=O)NC1CC1` [Example 419, N-cyclopropyl-2-methyl-4-{6-[(4-methyl-4H-1,2,4-triazol-3-yl)sulfanyl]-8-[(3,3,3-trifluoropropyl)amino]imidazo[1,2-b]pyridazin-3-yl}benzamide]: the IC50 was found to be 3.5 nM.
Turning to `Cc1cc(-c2cnc3c(NCCC(F)(F)F)cc(Sc4cnccn4)nn23)ccc1C(=O)NC1CC1` [Example 420, N-cyclopropyl-2-methyl-4-{6-(pyrazin-2-ylsulfanyl)-8-[(3,3,3-trifluoropropyl)amino]imidazo[1,2-b]pyridazin-3-yl}benzamide], the 50% inhibitory concentration (IC50) came out at 2.8 nM.
The same measure for `COc1cc(Nc2cc(NCCC(F)(F)F)c3ncc(-c4ccc(C(=O)NC5CC5)c(C)c4)n3n2)ccc1F` [Example 422, N-cyclopropyl-4-{6-[(4-fluoro-3-methoxyphenyl)amino]-8-[(3,3,3-trifluoropropyl)amino]imidazo[1,2-b]pyridazin-3-yl}-2-methylbenzamide]: 0.4 nM; for `Cc1cccc(Nc2cc(NCCC(F)(F)F)c3ncc(-c4ccc(C(=O)NC5CC5)c(C)c4)n3n2)c1` [Example 423, N-cyclopropyl-2-methyl-4-{6-[(3-methylphenyl)amino]-8-[(3,3,3-trifluoropropyl)amino]imidazo[1,2-b]pyridazin-3-yl}benzamide]: 0.3 nM; for `COc1ccc(Nc2cc(NCCC(F)(F)F)c3ncc(-c4ccc(C(=O)NC5CC5)c(C)c4)n3n2)cc1F` [Example 424, N-cyclopropyl-4-{6-[(3-fluoro-4-methoxyphenyl)amino]-8-[(3,3,3-trifluoropropyl)amino]imidazo[1,2-b]pyridazin-3-yl}-2-methylbenzamide]: 0.2 nM.
Regarding `COc1ccc(Nc2cc(NCCC(F)(F)F)c3ncc(-c4ccc(C(=O)NC5CC5)c(C)c4)n3n2)cc1` [Example 425, N-cyclopropyl-4-{6-[(4-methoxyphenyl)amino]-8-[(3,3,3-trifluoropropyl)amino]imidazo[1,2-b]pyridazin-3-yl}-2-methylbenzamide], the IC50 was found to be 0.1 nM.
For `COc1cccc(Nc2cc(NCCC(F)(F)F)c3ncc(-c4ccc(C(=O)NC5CC5)c(C)c4)n3n2)c1C` [Example 426, N-cyclopropyl-4-{6-[(3-methoxy-2-methylphenyl)amino]-8-[(3,3,3-trifluoropropyl)amino]imidazo[1,2-b]pyridazin-3-yl}-2-methylbenzamide] the value was 0.2 nM.
Take `Cc1cc(-c2cnc3c(NCCC(F)(F)F)cc(Nc4ccc(CCO)cc4)nn23)ccc1C(=O)NC1CC1` [Example 427, N-cyclopropyl-4-(6-{[4-(2-hydroxyethyl)phenyl]amino}-8-[(3,3,3-trifluoropropyl)amino]imidazo[1,2-b]pyridazin-3-yl)-2-methylbenzamide]: the half-maximal inhibitory concentration (IC50) was determined as 0.2 nM.
As to `Cc1cc(Nc2cc(NCCC(F)(F)F)c3ncc(-c4ccc(C(=O)NC5CC5)c(C)c4)n3n2)ccc1F` [Example 428, N-cyclopropyl-4-{6-[(4-fluoro-3-methylphenyl)amino]-8-[(3,3,3-trifluoropropyl)amino]imidazo[1,2-b]pyridazin-3-yl}-2-methylbenzamide], the IC50 was 0.4 nM.
On to `COc1ccc(Nc2cc(NCCC(F)(F)F)c3ncc(-c4ccc(C(=O)NC5CC5)c(C)c4)n3n2)cn1` [Example 429, N-cyclopropyl-4-{6-[(6-methoxypyridin-3-yl)amino]-8-[(3,3,3-trifluoropropyl)amino]imidazo[1,2-b]pyridazin-3-yl}-2-methylbenzamide], for which the IC50 amounted to 0.1 nM.
On to `COc1ccc(C)c(Nc2cc(NCCC(F)(F)F)c3ncc(-c4ccc(C(=O)NC5CC5)c(C)c4)n3n2)c1` [Example 430, N-cyclopropyl-4-{6-[(5-methoxy-2-methylphenyl)amino]-8-[(3,3,3-trifluoropropyl)amino]imidazo[1,2-b]pyridazin-3-yl}-2-methylbenzamide], for which the IC50 stood at 0.3 nM.

For the origin of these results see patent US9255100B2 (BAYER INTELLECTUAL PROPERTY GMBH, priority 2010, dated 2016).
